Data from ChEMBL document CHEMBL1201861, “Genomics of Drug Sensitity in Cancer screening data, Wellcome Trust Sanger Institute”.

Experiments:
Assay in all cases: cells
SW1463 = format: functional, cell-based, Homo sapiens; settings: Homo sapiens, SW1463;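 note: growth inhibition of SW1463 cells, determined with a cell viability assay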
Description: SANGER: Inhibition of human SW1463 cell growth in a cell viability assay.

COLO-741 = format: functional, cell-based, Homo sapiens; settings: Homo sapiens, COLO-741
Description: SANGER: Inhibition of human COLO-741 cell growth in a cell viability assay.

RXF 393 = format: functional, cell-based; settings: Homo sapiens;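 note: growth inhibition of human RXF 393 cells, read out with a cell viability assay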
Description: SANGER: Inhibition of human RXF393 cell growth in a cell viability assay.

ES5 = format: functional, cell-based, Homo sapiens; settings: Homo sapiens, ES5;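 note: growth inhibition of human ES5 cells, read out by a cell viability assay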
Description: SANGER: Inhibition of human ES5 cell growth in a cell viability assay.

HCE-T = format: functional, cell-based, Homo sapiens; settings: Homo sapiens, HCE-T;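 note: cell viability assay read-out, reporting inhibition of HCE-T cell growth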
Description: SANGER: Inhibition of human HCE-T cell growth in a cell viability assay.

AGS = format: functional, cell-based, Homo sapiens; settings: Homo sapiens, AGS;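 note: growth inhibition of AGS cells, determined with a cell viability assay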
Description: SANGER: Inhibition of human AGS cell growth in a cell viability assay.

NCI-H28 = format: functional, cell-based, Homo sapiens; settings: Homo sapiens, NCI-H28;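 note: growth inhibition of human NCI-H28 cells, read out as cell viability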
Description: SANGER: Inhibition of human NCI-H28 cell growth in a cell viability assay.

Huh-7 = format: functional, cell-based, Homo sapiens; settings: Homo sapiens, Huh-7;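 note: HuH-7 cell growth inhibition, read out with a cell viability assay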
Description: SANGER: Inhibition of human HuH-7 cell growth in a cell viability assay.

EGI-1 = format: functional, cell-based, Homo sapiens; settings: Homo sapiens, EGI-1;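 note: cell viability readout used to gauge growth inhibition of EGI-1 cells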
Description: SANGER: Inhibition of human EGI-1 cell growth in a cell viability assay.

no-11 = format: functional, cell-based, Homo sapiens; settings: Homo sapiens;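 note: growth inhibition of human NO-11 cells, read out with a cell viability assay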
Description: SANGER: Inhibition of human no-11 cell growth in a cell viability assay.

NTERA-2-cl-D1 = format: functional, cell-based, Homo sapiens; settings: Homo sapiens, NTERA-2-cl-D1;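 note: inhibition of cell growth, measured with a cell viability assay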
Description: SANGER: Inhibition of human NTERA-S-cl-D1 cell growth in a cell viability assay.

8305C = format: functional, cell-based, Homo sapiens; settings: Homo sapiens, 8305C
Description: SANGER: Inhibition of human 8305C cell growth in a cell viability assay.

NCI-H650 = format: functional, cell-based, Homo sapiens; settings: Homo sapiens, NCI-H650;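 note: growth inhibition of NCI-H650 cells, read out by a viability assay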
Description: SANGER: Inhibition of human NCI-H650 cell growth in a cell viability assay.

KG-1 = format: functional, cell-based; settings: Homo sapiens;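 note: growth inhibition of KG-1 cells, read out by a cell viability assay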
Description: SANGER: Inhibition of human KG-1 cell growth in a cell viability assay.

NCI-H520 = format: functional, cell-based, Homo sapiens; settings: Homo sapiens, NCI-H520;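 note: growth inhibition of NCI-H520 cells, measured by a cell viability assay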
Description: SANGER: Inhibition of human NCI-H520 cell growth in a cell viability assay.

NKM-1 = format: functional, cell-based; settings: Homo sapiens;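 note: growth inhibition of NKM-1 cells, read out with a cell viability assay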
Description: SANGER: Inhibition of human NKM-1 cell growth in a cell viability assay.

NCI-H2342 = format: functional, cell-based; settings: Homo sapiens;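 note: growth inhibition of the cancer cell line, determined with a cell viability assay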
Description: SANGER: Inhibition of human NCI-H2342 cell growth in a cell viability assay.

M14 = format: functional, cell-based, Homo sapiens; settings: Homo sapiens, M14;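 note: growth inhibition of M14 cells, read out with a cell viability assay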
Description: SANGER: Inhibition of human M14 cell growth in a cell viability assay.

LS-513 = format: functional, cell-based, Homo sapiens; settings: Homo sapiens, LS-513
Description: SANGER: Inhibition of human LS-513 cell growth in a cell viability assay.

SCC-4 = format: functional, cell-based, Homo sapiens; settings: Homo sapiens, SCC-4;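 note: growth inhibition of human SCC-4 cells, read out as cell viability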
Description: SANGER: Inhibition of human SCC-4 cell growth in a cell viability assay.

A101D = format: functional, cell-based, Homo sapiens; settings: Homo sapiens, A101D;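 note: growth inhibition of the cell line, measured with a viability assay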
Description: SANGER: Inhibition of human A101D cell growth in a cell viability assay.

HDLM-2 = format: functional, cell-based; settings: Homo sapiens;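 note: cell viability assay measuring suppression of HDLM-2 proliferation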
Description: SANGER: Inhibition of human HDLM-2 cell growth in a cell viability assay.

SW48 = format: functional, cell-based, Homo sapiens; settings: Homo sapiens, SW48;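 note: growth inhibition of SW48 cells, read out with a cell viability assay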
Description: SANGER: Inhibition of human SW48 cell growth in a cell viability assay.

CaR-1 = format: functional, cell-based, Homo sapiens; settings: Homo sapiens, CaR-1;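 note: growth inhibition of human CaR-1 cancer cells, read out with a cell viability assay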
Description: SANGER: Inhibition of human CaR-1 cell growth in a cell viability assay.

MC116 = format: functional, cell-based; settings: Homo sapiens;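 note: growth inhibition of MC116 cells, read out with a cell viability assay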
Description: SANGER: Inhibition of human MC116 cell growth in a cell viability assay.

RKO = format: functional, cell-based, Homo sapiens; settings: Homo sapiens, RKO;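 note: growth inhibition of human RKO cells, read out with a cell viability assay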
Description: SANGER: Inhibition of human RKO cell growth in a cell viability assay.

SW1710 = format: functional, cell-based, Homo sapiens; settings: Homo sapiens, SW1710;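 note: growth inhibition of SW1710 cells, determined with a cell viability assay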
Description: SANGER: Inhibition of human SW1710 cell growth in a cell viability assay.

NCI-N87 = format: functional, cell-based, Homo sapiens; settings: Homo sapiens, NCI-N87;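 note: growth inhibition of human NCI-N87 cells, read out with a cell viability assay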
Description: SANGER: Inhibition of human NCI-N87 cell growth in a cell viability assay.

RVH-421 = format: functional, cell-based, Homo sapiens; settings: Homo sapiens, RVH-421
Description: SANGER: Inhibition of human RVH-421 cell growth in a cell viability assay.

MHH-PREB-1 = format: functional, cell-based; settings: Homo sapiens;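 note: cell viability assay measuring inhibition of proliferation of human MHH-PREB-1 cells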
Description: SANGER: Inhibition of human MHH-PREB-1 cell growth in a cell viability assay.

SW13 = format: functional, cell-based, Homo sapiens; settings: Homo sapiens, SW13;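 note: IC50 is inhibition of SW13 cell growth, read out with a cell viability assay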
Description: SANGER: Inhibition of human SW13 cell growth in a cell viability assay.

CGTH-W-1 = format: functional, cell-based, Homo sapiens; settings: Homo sapiens, CGTH-W-1;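 note: growth inhibition of human CGTH-W-1 cells measured by cell viability assay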
Description: SANGER: Inhibition of human CGTH-W-1 cell growth in a cell viability assay.

SCC-9 = format: functional, cell-based, Homo sapiens; settings: Homo sapiens, SCC-9;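 note: Read-out is a cell viability assay, with values giving inhibition of cell growth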
Description: SANGER: Inhibition of human SCC-9 cell growth in a cell viability assay.

HEC-1 = format: functional, cell-based, Homo sapiens; settings: Homo sapiens, HEC-1;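 note: growth inhibition of the cell line, read out with a cell viability assay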
Description: SANGER: Inhibition of human HEC-1 cell growth in a cell viability assay.

CAMA-1 = format: functional, cell-based, Homo sapiens; settings: Homo sapiens, CAMA-1;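 note: growth inhibition of CAMA-1 cells, read out with a cell viability assay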
Description: SANGER: Inhibition of human CAMA-1 cell growth in a cell viability assay.

BT-20 = format: functional, cell-based, Homo sapiens; settings: Homo sapiens, BT-20;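 note: cell viability assay measuring suppression of growth in human BT-20 cells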
Description: SANGER: Inhibition of human BT-20 cell growth in a cell viability assay.

NCI-H1693 = format: functional, cell-based, Homo sapiens; settings: Homo sapiens, NCI-H1693;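 note: growth inhibition of the human cell line, read out with a cell viability assay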
Description: SANGER: Inhibition of human NCI-H1693 cell growth in a cell viability assay.

U-87 MG = format: functional, cell-based, U-87MG ATCC; settings: Homo sapiens;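 note: growth inhibition of the cells measured with a viability assay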
Description: SANGER: Inhibition of human U-87-MG cell growth in a cell viability assay.

U-266 = format: functional, cell-based; settings: Homo sapiens
Description: SANGER: Inhibition of human U-266 cell growth in a cell viability assay.

EFM-19 = format: functional, cell-based, Homo sapiens; settings: Homo sapiens, EFM-19;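 note: growth inhibition of human EFM-19 cells, measured in a cell viability assay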
Description: SANGER: Inhibition of human EFM-19 cell growth in a cell viability assay.

CAL-27 = format: functional, cell-based, Homo sapiens; settings: Homo sapiens, CAL-27;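 note: Viability-based readout, IC50 reflecting inhibition of CAL-27 cell growth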
Description: SANGER: Inhibition of human CAL-27 cell growth in a cell viability assay.

CTB-1 = format: functional, cell-based; settings: Homo sapiens
Description: SANGER: Inhibition of human CTB-1 cell growth in a cell viability assay.

LK-2 = format: functional, cell-based, Homo sapiens; settings: Homo sapiens, LK-2;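 note: growth inhibition of LK-2 cells, read out with a viability assay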
Description: SANGER: Inhibition of human LK-2 cell growth in a cell viability assay.

SAOS-2 = format: functional, cell-based, Homo sapiens; settings: Homo sapiens, SAOS-2;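 note: growth inhibition of human Saos-2 cells determined by a cell viability assay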
Description: SANGER: Inhibition of human Saos-2 cell growth in a cell viability assay.

NCI-H1838 = format: functional, cell-based, Homo sapiens; settings: Homo sapiens, NCI-H1838;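 note: growth inhibition of NCI-H1838 cells, determined with a cell viability readout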
Description: SANGER: Inhibition of human NCI-H1838 cell growth in a cell viability assay.

SHP77 = format: functional, cell-based, Homo sapiens, SHP-77; settings: Homo sapiens, SHP77;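 note: growth inhibition of human SHP-77 cells measured by a cell viability assay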
Description: SANGER: Inhibition of human SHP-77 cell growth in a cell viability assay.

MKN-1 = format: functional, cell-based, Homo sapiens; settings: Homo sapiens, MKN-1;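 note: growth inhibition of human MKN1 cells, read out by a cell viability measurement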
Description: SANGER: Inhibition of human MKN1 cell growth in a cell viability assay.

RCC10RGB = format: functional, cell-based, Homo sapiens; settings: Homo sapiens, RCC10RGB;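 note: growth inhibition of human RCC10RGB cells, read out by a cell viability assay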
Description: SANGER: Inhibition of human RCC10RGB cell growth in a cell viability assay.

NCI-H747 = format: functional, cell-based; settings: Homo sapiens;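 note: growth inhibition of human NCI-H747 cells, read out by a cell viability assay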
Description: SANGER: Inhibition of human NCI-H747 cell growth in a cell viability assay.

no-10 = format: functional, cell-based, Homo sapiens; settings: Homo sapiens;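 note: growth inhibition of no-10 cells, read out with a cell viability assay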
Description: SANGER: Inhibition of human no-10 cell growth in a cell viability assay.

Lu-65 = format: functional, cell-based; settings: Homo sapiens;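 note: growth inhibition of Lu-65 cancer cells, read out by a cell viability assay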
Description: SANGER: Inhibition of human LU-65 cell growth in a cell viability assay.

With `COc1ccc(-c2ccc3c(N4CCOC[C@@H]4C)nc(N4CCOC[C@@H]4C)nc3n2)cc1CO` [AZD-8055] the IC50 (SW1463) was greater than 2 µM, the IC50 (COLO-741) was greater than 2 µM and the IC50 (RXF 393) was 0.929 µM. It also gave an IC50 (ES5) of 0.0935 µM, an IC50 (HCE-T) of 1.18 µM and an IC50 (AGS) of 1.09 µM. For the same molecule, the IC50 (NCI-H28) was 0.587 µM, the IC50 (Huh-7) was 0.434 µM and the IC50 (EGI-1) was 0.135 µM. The IC50 (no-11) was greater than 2 µM, the IC50 (NTERA-2-cl-D1) was 0.701 µM and the IC50 (8305C) was 0.708 µM. It also gave an IC50 (NCI-H650) of 0.791 µM, an IC50 (KG-1) of 0.569 µM and an IC50 (NCI-H520) of 0.348 µM. The IC50 (NKM-1) was 0.2 µM, the IC50 (NCI-H2342) was greater than 2 µM and the IC50 (M14) was 0.472 µM. For the same molecule, the IC50 (LS-513) was greater than 2 µM, the IC50 (SCC-4) was 0.585 µM and the IC50 (A101D) was 0.49 µM. It also gave an IC50 (HDLM-2) of 1.21 µM, an IC50 (SW48) of 1.11 µM and an IC50 (CaR-1) of 1.75 µM. For the same molecule, the IC50 (MC116) was greater than 2 µM, the IC50 (RKO) was 0.868 µM and the IC50 (SW1710) was 0.632 µM. For the same molecule, the IC50 (NCI-N87) was greater than 2 µM, the IC50 (RVH-421) was 0.636 µM and the IC50 (MHH-PREB-1) was 0.747 µM. It also gave an IC50 (SW13) of 0.984 µM, an IC50 (CGTH-W-1) of 1.56 µM and an IC50 (SCC-9) greater than 2 µM. The IC50 (HEC-1) was 1.18 µM, the IC50 (CAMA-1) was 0.622 µM and the IC50 (BT-20) was 1.22 µM. The IC50 (NCI-H1693) was 1.98 µM, the IC50 (U-87 MG) was greater than 2 µM and the IC50 (U-266) was greater than 2 µM. The IC50 (EFM-19) was 0.708 µM, the IC50 (CAL-27) was greater than 2 µM and the IC50 (CTB-1) was 0.272 µM. It also gave an IC50 (LK-2) of 0.268 µM, an IC50 (SAOS-2) of 1.82 µM and an IC50 (NCI-H1838) greater than 2 µM. It also gave an IC50 (SHP77) greater than 2 µM, an IC50 (MKN-1) greater than 2 µM and an IC50 (RCC10RGB) greater than 2 µM. For the same molecule, the IC50 (NCI-H747) was 0.76 µM, the IC50 (no-10) was greater than 2 µM and the IC50 (Lu-65) was 1.26 µM.
`CC(=O)O[C@@H]1[C@@H](OC(C)=O)[C@@H](O)[C@H](Oc2c(-c3ccc(O)cc3)oc3cc(O)cc(O)c3c2=O)O[C@H]1C` gave an IC50 (SW1463) greater than 10 µM, an IC50 (COLO-741) greater than 10 µM and an IC50 (RXF 393) greater than 10 µM. The IC50 (ES5) was greater than 10 µM, the IC50 (HCE-T) was greater than 10 µM and the IC50 (AGS) was greater than 10 µM. For the same molecule, the IC50 (NCI-H28) was greater than 10 µM, the IC50 (Huh-7) was greater than 10 µM and the IC50 (EGI-1) was greater than 10 µM. The IC50 (no-11) was greater than 10 µM, the IC50 (NTERA-2-cl-D1) was greater than 10 µM and the IC50 (8305C) was greater than 10 µM. For the same molecule, the IC50 (NCI-H650) was greater than 10 µM, the IC50 (KG-1) was greater than 10 µM and the IC50 (NCI-H520) was greater than 10 µM. The IC50 (NKM-1) was greater than 10 µM, the IC50 (NCI-H2342) was greater than 10 µM and the IC50 (M14) was greater than 10 µM. It also gave an IC50 (LS-513) greater than 10 µM, an IC50 (SCC-4) greater than 10 µM and an IC50 (A101D) greater than 10 µM. For the same molecule, the IC50 (HDLM-2) was greater than 10 µM, the IC50 (SW48) was greater than 10 µM and the IC50 (CaR-1) was greater than 10 µM. It also gave an IC50 (MC116) greater than 10 µM, an IC50 (RKO) greater than 10 µM and an IC50 (SW1710) greater than 10 µM. For the same molecule, the IC50 (NCI-N87) was greater than 10 µM, the IC50 (RVH-421) was greater than 10 µM and the IC50 (MHH-PREB-1) was greater than 10 µM. For the same molecule, the IC50 (SW13) was greater than 10 µM, the IC50 (CGTH-W-1) was greater than 10 µM and the IC50 (SCC-9) was greater than 10 µM. It also gave an IC50 (HEC-1) greater than 10 µM, an IC50 (CAMA-1) greater than 10 µM and an IC50 (BT-20) greater than 10 µM. It also gave an IC50 (NCI-H1693) greater than 10 µM, an IC50 (U-87 MG) greater than 10 µM and an IC50 (U-266) greater than 10 µM. For the same molecule, the IC50 (EFM-19) was greater than 10 µM, the IC50 (CAL-27) was greater than 10 µM and the IC50 (CTB-1) was 7.32 µM. It also gave an IC50 (LK-2) greater than 10 µM, an IC50 (SAOS-2) greater than 10 µM and an IC50 (NCI-H1838) greater than 10 µM. It also gave an IC50 (SHP77) greater than 10 µM, an IC50 (MKN-1) greater than 10 µM and an IC50 (RCC10RGB) greater than 10 µM. For the same molecule, the IC50 (NCI-H747) was greater than 10 µM, the IC50 (no-10) was greater than 10 µM and the IC50 (Lu-65) was greater than 10 µM.
Molecule `COc1cc(F)c(F)c(Nc2ccc(I)cc2F)c1NS(=O)(=O)C1(CC(O)CO)CC1` (stereo not drawn) has an IC50 (SW1463) of 4.13 µM, an IC50 (COLO-741) of 0.915 µM and an IC50 (RXF 393) of 1.45 µM. It also gave an IC50 (ES5) greater than 5 µM, an IC50 (HCE-T) greater than 5 µM and an IC50 (AGS) of 0.24 µM. For the same molecule, the IC50 (NCI-H28) was greater than 5 µM, the IC50 (Huh-7) was 1.47 µM and the IC50 (EGI-1) was 1.31 µM. It also gave an IC50 (no-11) greater than 5 µM, an IC50 (NTERA-2-cl-D1) greater than 5 µM and an IC50 (8305C) of 1.29 µM. The IC50 (NCI-H650) was greater than 5 µM, the IC50 (KG-1) was greater than 5 µM and the IC50 (NCI-H520) was greater than 5 µM. It also gave an IC50 (NKM-1) of 2.43 µM, an IC50 (NCI-H2342) greater than 5 µM and an IC50 (M14) of 0.0286 µM. The IC50 (LS-513) was 0.414 µM, the IC50 (SCC-4) was 5 µM and the IC50 (A101D) was 0.0512 µM. It also gave an IC50 (HDLM-2) greater than 5 µM, an IC50 (SW48) greater than 5 µM and an IC50 (CaR-1) greater than 5 µM. The IC50 (MC116) was greater than 5 µM, the IC50 (RKO) was 1.39 µM and the IC50 (SW1710) was 2.02 µM. For the same molecule, the IC50 (NCI-N87) was greater than 5 µM, the IC50 (RVH-421) was 0.0335 µM and the IC50 (MHH-PREB-1) was greater than 5 µM. It also gave an IC50 (SW13) of 4.33 µM, an IC50 (CGTH-W-1) of 2.73 µM and an IC50 (SCC-9) greater than 5 µM. It also gave an IC50 (HEC-1) greater than 5 µM, an IC50 (CAMA-1) greater than 5 µM and an IC50 (BT-20) greater than 5 µM. It also gave an IC50 (NCI-H1693) greater than 5 µM, an IC50 (U-87 MG) greater than 5 µM and an IC50 (U-266) greater than 5 µM. For the same molecule, the IC50 (EFM-19) was greater than 5 µM, the IC50 (CAL-27) was greater than 5 µM and the IC50 (CTB-1) was greater than 5 µM. The IC50 (LK-2) was greater than 5 µM, the IC50 (SAOS-2) was greater than 5 µM and the IC50 (NCI-H1838) was greater than 5 µM. The IC50 (SHP77) was greater than 5 µM, the IC50 (MKN-1) was greater than 5 µM and the IC50 (RCC10RGB) was greater than 5 µM. The IC50 (NCI-H747) was 0.657 µM, the IC50 (no-10) was greater than 5 µM and the IC50 (Lu-65) was 3.28 µM.
